The values that follow come from patent publication US20260231954A1, “PESTICIDAL ENZYMES FOR USE ON NEMATODES, INSECTS, AND MOLLUSKS” (priority 2023, published 2026).

Test [1] relates to soybean cyst nematode (SCN). Nature of the test: SCN reproduction after application of enzyme or recombinant strain to soil. It is filed as in vivo, Heterodera glycines. As to conditions: Table 33; for % Comparison to Control: first figure, water control = 100%. Here is the method:
To determine the efficacy of nematicidal enzymes applied to soil, a controlled environment trial was performed with 7-day old soybean plants (variety 2830E3) grown in pots. Enzymes were produced as described in Example 2. Prior to inoculation, 0.5 mL of neutral protease (SEQ ID NO: 127), esterase B (SEQ ID NO: 89), or chitinase 19F (SEQ ID NO: 182) free enzyme solution was applied to the soil around the base of each plant, or 0.5 mL of water was applied for the control (30 plants per treatment). Then, hatched SCN juveniles were applied to the soil around each plant as described in Example 2, and three weeks later, cysts per gram of root tissue was determined as described in Example 2. The data was analyzed as in Example 2 and appears in Tables 33 and 34.
To determine the efficacy of recombinant strains applied to soil, a controlled environment trial was performed as described in Example 18 above (Reduction of soybean cyst nematode reproduction by enzymes applied to soil), with the exception that a recombinant strain expressing neutral protease (SEQ ID NO: 127) was applied instead of a free enzyme solution. The recombinant strain was produced as in Example 3, and the treatment applied to soil as a whole cell broth.

Test [2] deals with Btk resistant Diamondback moth. Nature of the test: Diet-surface overlay (DSO) bioassay on Btk resistant Diamondback moth. It is filed as in vivo, Plutella xylostella. As to conditions: number of individuals, n = 32, 7 days. Here is the method: (§1) Diet-surface overlay bioassays are conducted with artificial diet mixes without antibiotics in 1.5 cm^2 cell bioassay trays(s). Artificial diets are commercially available from Southland Products Inc. Diets were prepared by dispersing 0.5 mL of molten diet to each 1.5 cm^2 cell. After solidification, 0.1 mL enzyme treatments were dispersed on top of diet in each cell and the tray was gently rocked in an orbital shaker to spread the liquid uniformly over the diet surface. Trays were placed under clean airflow until the surface of each cell was uniformly dried. One or two 16-cell sections were used per treatment (the number in larvae treated was 16 or 32).
(§2) One healthy first instar larva was placed into each treatment cell, each 16-cell section was covered with a re-sealable lid and incubated at 27° C. and light-dark period of 16:8 hrs. After 7 days, and according to the species, the number of individuals in the following developmental categories was recorded.
(§3) Diamondback moth (Plutella xylostella): Dead Larva (lack of movement), Larva Stage I (≤50% relative size), Larva Stage II (100% relative size, full size), Early Pupa (light green color), Late Pupa (light-dark brown color), and Adult.
(§4) Negative/untreated controls were treated with filtered water and positive controls were treated with lethal doses of Bacillus thuringiensis subsp. Kurstaki (Btk) spores at 1000 ppm.
However, both neutral proteases reduced the number of individuals reaching adult stage.
The effect of lipase (10× enzyme rate) and free lipases were tested on a Diamondback Moth Btk resistant strain. Free Lipases from Burkholderia cepacia (Bc) and Pseudomonas fluorescens (Pf) were tested along with Lipase (SEQ ID NO: 76) and the results are shown below in Table 45.

In test [3] the test system is soybean cyst nematode (SCN, Heterodera glycines). Nature of the test: Soybean cyst nematode reproduction on soybean after seed treatment, controlled environment (cysts per gram of root tissue or per plant). In kind it is in vivo.
In test [4] the test system is Diamondback moth (Plutella xylostella). Nature of the test: Diet-surface overlay (DSO) bioassay on Diamondback moth. In kind it is in vivo. As to conditions: number of individuals, n = 16. Here is the method: as §1, §2, §3, §4
Another test concerns Meloidogyne incognita. Briefly: Root gall index of soybeans inoculated with Meloidogyne incognita after seed treatment (greenhouse). In kind it is in vivo. As to conditions: for % Comparison to Control: first figure, base seed treatment control = 100%. Here is the method: Nematicidal neutral protease (SEQ ID NO: 127) was produced by fermentation in Bacillus subtilis. The enzyme was cloned into Bacillus expression plasmid p1797 with isopropyl β-d-1-thiogalactopyranoside (IPTG)-inducible expression. The plasmid was transformed into B. subtilis, and this strain was grown in rich media until an optical density (OD) of 0.2-0.5 was reached. Then, enzyme expression was induced by addition of 1 mM IPTG. Following the culture harvest, cells were removed by filtration through a […] filter. Culture filtrate containing secreted protease was then used for seed treatment. Bacillus subtilis fermentation filtrate expressing neutral protease was mixed directly into a seed treatment slurry containing colorant and Peridiam® 1006 […] at a rate of 2 fl oz per unit of seed and coated onto Bossier variety soybean seed.
To investigate the effects of neutral protease on galling due to root knot nematode infestation, treated seeds were planted in soil in cone-tainers in a greenhouse. Seven days after planting, each cone-tainer was inoculated with 1250 eggs from the Dick Meloidogyne incognita population. Eight weeks post-inoculation, roots were excavated and washed. Root galling was visually rated on a gall index (GI) scale of 1-5 (1=<10% GI; 2=11-20%, 3=21-30%, 4=31-40%, 5=>40% GI). Fifteen plants were evaluated per treatment and their average root gall ratings were recorded.

Take “Neutral protease (SEQ ID NO: 127): Bacillus sp. B16 neutral protease produced by fermentation in Bacillus subtilis; culture filtrate containing the secreted enzyme”: the “% Comparison to Control (figure in parentheses)” value in test [1] (change vs water control) is −32%; in test [3] (Table 38, change vs base control, liquid 2 fl oz/unit, ILEVO), −42%; with Meloidogyne incognita (Table 26, change vs base control) it was −26%. For the same substance, the “% Comparison to Control” value is “reduced SCN reproduction” in test [1]; 68% in test [1] (listed as Neutral protease free enzyme (SEQ ID NO: 127)); “reduction of average visual gall rating” in the test with Meloidogyne incognita (Table 26); 74% in the test on Meloidogyne incognita (Table 26, listed as Neutral protease seed treatment (SEQ ID NO: 127)). Also, the “Average cysts per g of root tissue” value is recorded as 35.7 cysts per g of root tissue in test [1] (free enzyme 0.5 mL/plant to soil, soybean 2830E3, 3 weeks); 20.1 cysts per g of root tissue in test [3] (Table 11, free enzyme seed treatment 2 fl. oz. per unit of seed (ILEVO 0.15 mg active ingredient per seed), soybean P18A98X, 3 weeks after inoculation); 40.3 cysts per g of root tissue in test [3] (Table 14, seed treated with whole cell broth, soybean P18A98X); 208.8 cysts per g of root tissue in test [3] (Table 38, liquid formulation 2 fl oz/unit, ILEVO positive control, soybean 2830E3). Also, the “Dead Larva” value was determined as 4 in test [2] (Table 42, proteases at 10x rate) and 2 in test [4] (Table 41, proteases, after 7 days, rate in U/mL diet column). For the same substance, the Adult in test [2] (Table 42) was 0; in test [4] (Table 41, 7 days), 0. The “Early Pupa” value in test [2] (Table 42) came out at 6; in test [4] (Table 41, 7 days), 8. Besides, the “Larva Stage I” value in test [2] (Table 42) worked out at 0; in test [4] (Table 41, 7 days), 0. For the same substance, the “Larva Stage II” value came out at 0 in test [2] (Table 42) and 0 in test [4] (Table 41, 7 days). In addition, the “Late Pupa” value is 22 in test [2] (Table 42) and 6 in test [4] (Table 41, 7 days). Further, in the test with Meloidogyne incognita (gall index scale of 1-5, seed treatment 2 fl oz per unit of seed, Bossier soybean, 8 weeks post-inoculation, 15 plants), the “Average root gall rating” value came to 3.5.
